Measured values reported in ChEMBL document CHEMBL3865806, “3-Hydrazinoindolin-2-one derivatives: Chemical classification and investigation of their targets as anticancer agents” (Eur J Med Chem, 2016).

What was measured:
[1] = Cytotoxicity against human HepG2 cells measured after 72 hrs by SRB assay; format: functional, cell-based; conditions: HepG2, 72 h
[2] = biological target: T1, Hepatocyte growth factor receptor (Homo sapiens, UniProt P08581); test: Inhibition of C-Met in human S114 cells assessed as inhibition of HGF-stimulated autophosphorylation preincubated for 60 mins followed by HGF-stimulation measured after 15 minsby DELFIA method; format: cell-based
[3] = biological target: T1, Hepatocyte growth factor receptor; test: Inhibition of GST-tagged c-Met (unknown origin) assessed as phosphotyrosine levels preincubated foe 15 mins followed by addition of poly(glutamic acid-tyrosine (4:1)) as substrate and ATP by ELISA
HeLa = test: Inhibition of HDAC in human HeLa cell nuclear extract at 30 uM using Fluor de Lys as substrate measured after 10 to 15 mins by fluorimetric assay; format: cell-free
[4] = Anticancer activity against human HeLa cells measured after 48 hrs by MTT assay; format: functional, cell-based
[5] = Anticancer activity against human IMR32 cells measured after 48 hrs by MTT assay; format: functional, cell-based; conditions: IMR-32, 48 h
[6] = Antiproliferative activity against human MCF7 cells measured after 48 hrs by MTT assay; format: functional, cell-based; conditions: MCF7, 48 h
[7] = Cytotoxicity against human HOP62 cells measured after 48 hrs by SRB assay; format: functional; conditions: HOP-62, 48 h
[8] = Cytotoxicity against human HL-60(TB) cells measured after 48 hrs by SRB assay; format: functional; conditions: HL-60, 48 h
[9] = Cytotoxicity against human MOLT4 cells measured after 48 hrs by SRB assay; format: functional; conditions: MOLT-4, 48 h
[10] = Cytotoxicity against human […] cells measured after 48 hrs by SRB assay; format: functional; conditions: RXF 393, 48 h
[11] = Cytotoxicity against human UO31 cells measured after 48 hrs by SRB assay; format: functional; conditions: UO-31, 48 h
[12] = Cytotoxicity against human U251 cells measured after 48 hrs by SRB assay; format: functional; conditions: U-251, 48 h
[13] = Cytotoxicity against porcine testicular cells assessed as cell death at 120 to 250 ug/ml; format: toxicity, cell-based, Sus scrofa; conditions: pig
[14] = Growth inhibition of human SR cells measured after 48 hrs by SRB assay; format: functional
[15] = Growth inhibition of human NCI-H522 cells measured after 48 hrs by SRB assay; format: functional
[16] = Growth inhibition of human MDA-MB-468 cells measured after 48 hrs by SRB assay; format: functional
[17] = biological target: Epidermal growth factor receptor (Homo sapiens) (UniProt P00533); test: Inhibition of EGFR (unknown origin) at 100 uM relative to control
[18] = biological target: Glycogen synthase kinase-3 beta (Homo sapiens, UniProt P49841); test: Inhibition of GSK-3beta (unknown origin) assessed as inhibition of phosphorylation using Ser/Thr 9 peptide as substrate by FRET-based Z-LYTE assay
[19] = Cytotoxicity against human KB-3-1 cells measured after 72 hrs by MTT assay; format: functional, cell-based; conditions: KB 3-1, 72 h
[20] = Cytotoxicity against human KBV1 cells expressing P-glycoprotein measured after 72 hrs by MTT assay; format: functional, cell-based; conditions: KB-V1, 72 h
[21] = Antiproliferative activity against human K562 cells measured after 48 hrs by WST1 assay; format: functional, cell-based; conditions: K562, 48 h
[22] = Antiproliferative activity against human MCF7 cells measured after 48 hrs by SRB assay; format: functional, cell-based; conditions: MCF7, 48 h
[23] = Antiproliferative activity against mouse L1210 cells; format: functional, cell-based
[24] = biological target: T2, Tyrosine-protein phosphatase non-receptor type 11 (Homo sapiens, UniProt Q06124)
T2 sequence (Q06124 whole entry): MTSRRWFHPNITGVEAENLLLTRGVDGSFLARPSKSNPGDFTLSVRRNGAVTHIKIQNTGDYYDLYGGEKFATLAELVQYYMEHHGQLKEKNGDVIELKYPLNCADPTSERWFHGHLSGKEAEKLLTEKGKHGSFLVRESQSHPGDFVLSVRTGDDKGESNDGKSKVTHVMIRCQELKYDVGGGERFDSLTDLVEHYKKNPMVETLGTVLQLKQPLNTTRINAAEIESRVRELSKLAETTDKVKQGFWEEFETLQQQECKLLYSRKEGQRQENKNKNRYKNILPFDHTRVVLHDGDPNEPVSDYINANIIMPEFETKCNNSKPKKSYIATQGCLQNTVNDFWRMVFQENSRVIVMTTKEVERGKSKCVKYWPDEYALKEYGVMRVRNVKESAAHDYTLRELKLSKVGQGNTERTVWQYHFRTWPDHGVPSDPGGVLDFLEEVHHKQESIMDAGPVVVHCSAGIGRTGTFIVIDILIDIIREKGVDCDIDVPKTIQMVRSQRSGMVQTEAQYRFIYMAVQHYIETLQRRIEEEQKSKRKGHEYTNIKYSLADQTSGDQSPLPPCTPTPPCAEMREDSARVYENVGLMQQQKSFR
Description: Inhibition of human GST-tagged Shp2 (205 to 593 residues) expressed Escherichia coli DH5alpha assessed as inhibition of PTP activity using DiFMUP as substrate measured after 30 mins by fluorescence analysis

T1 sequence (P08581 whole entry): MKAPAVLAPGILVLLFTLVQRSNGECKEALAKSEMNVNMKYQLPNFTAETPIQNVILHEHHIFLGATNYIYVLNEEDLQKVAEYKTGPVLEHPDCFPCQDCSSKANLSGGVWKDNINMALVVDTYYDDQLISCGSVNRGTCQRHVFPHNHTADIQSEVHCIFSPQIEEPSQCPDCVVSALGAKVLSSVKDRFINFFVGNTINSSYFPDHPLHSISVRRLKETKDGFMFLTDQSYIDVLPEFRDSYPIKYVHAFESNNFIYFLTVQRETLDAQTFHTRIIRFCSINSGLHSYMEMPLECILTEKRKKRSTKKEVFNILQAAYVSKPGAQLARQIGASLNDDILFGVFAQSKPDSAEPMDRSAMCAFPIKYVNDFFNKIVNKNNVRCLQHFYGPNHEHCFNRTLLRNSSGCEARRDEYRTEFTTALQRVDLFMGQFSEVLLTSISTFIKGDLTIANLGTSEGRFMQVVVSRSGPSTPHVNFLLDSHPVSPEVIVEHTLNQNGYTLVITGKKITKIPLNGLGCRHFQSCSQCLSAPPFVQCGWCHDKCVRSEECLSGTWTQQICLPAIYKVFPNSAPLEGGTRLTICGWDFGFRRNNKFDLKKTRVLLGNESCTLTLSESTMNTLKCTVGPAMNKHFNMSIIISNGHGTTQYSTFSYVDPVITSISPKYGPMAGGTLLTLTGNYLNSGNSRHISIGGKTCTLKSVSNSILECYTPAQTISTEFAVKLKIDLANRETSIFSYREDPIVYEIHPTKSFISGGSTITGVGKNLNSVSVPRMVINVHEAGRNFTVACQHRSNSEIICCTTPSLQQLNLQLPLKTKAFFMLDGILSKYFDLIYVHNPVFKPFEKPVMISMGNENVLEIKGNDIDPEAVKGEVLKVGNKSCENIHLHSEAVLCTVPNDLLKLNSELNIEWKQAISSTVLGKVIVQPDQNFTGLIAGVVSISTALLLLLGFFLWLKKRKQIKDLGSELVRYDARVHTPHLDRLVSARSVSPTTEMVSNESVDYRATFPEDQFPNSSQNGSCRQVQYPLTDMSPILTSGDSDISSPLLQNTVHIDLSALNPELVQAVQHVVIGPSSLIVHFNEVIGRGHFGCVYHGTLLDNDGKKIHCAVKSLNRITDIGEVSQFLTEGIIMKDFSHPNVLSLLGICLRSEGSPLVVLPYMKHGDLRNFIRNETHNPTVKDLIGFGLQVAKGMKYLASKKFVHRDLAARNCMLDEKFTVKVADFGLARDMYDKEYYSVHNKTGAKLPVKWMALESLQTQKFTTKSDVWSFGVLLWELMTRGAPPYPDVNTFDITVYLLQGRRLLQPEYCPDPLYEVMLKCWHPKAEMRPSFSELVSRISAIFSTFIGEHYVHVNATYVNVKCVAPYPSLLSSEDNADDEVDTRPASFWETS
Epidermal growth factor receptor (Homo sapiens), sequence (P00533 whole entry): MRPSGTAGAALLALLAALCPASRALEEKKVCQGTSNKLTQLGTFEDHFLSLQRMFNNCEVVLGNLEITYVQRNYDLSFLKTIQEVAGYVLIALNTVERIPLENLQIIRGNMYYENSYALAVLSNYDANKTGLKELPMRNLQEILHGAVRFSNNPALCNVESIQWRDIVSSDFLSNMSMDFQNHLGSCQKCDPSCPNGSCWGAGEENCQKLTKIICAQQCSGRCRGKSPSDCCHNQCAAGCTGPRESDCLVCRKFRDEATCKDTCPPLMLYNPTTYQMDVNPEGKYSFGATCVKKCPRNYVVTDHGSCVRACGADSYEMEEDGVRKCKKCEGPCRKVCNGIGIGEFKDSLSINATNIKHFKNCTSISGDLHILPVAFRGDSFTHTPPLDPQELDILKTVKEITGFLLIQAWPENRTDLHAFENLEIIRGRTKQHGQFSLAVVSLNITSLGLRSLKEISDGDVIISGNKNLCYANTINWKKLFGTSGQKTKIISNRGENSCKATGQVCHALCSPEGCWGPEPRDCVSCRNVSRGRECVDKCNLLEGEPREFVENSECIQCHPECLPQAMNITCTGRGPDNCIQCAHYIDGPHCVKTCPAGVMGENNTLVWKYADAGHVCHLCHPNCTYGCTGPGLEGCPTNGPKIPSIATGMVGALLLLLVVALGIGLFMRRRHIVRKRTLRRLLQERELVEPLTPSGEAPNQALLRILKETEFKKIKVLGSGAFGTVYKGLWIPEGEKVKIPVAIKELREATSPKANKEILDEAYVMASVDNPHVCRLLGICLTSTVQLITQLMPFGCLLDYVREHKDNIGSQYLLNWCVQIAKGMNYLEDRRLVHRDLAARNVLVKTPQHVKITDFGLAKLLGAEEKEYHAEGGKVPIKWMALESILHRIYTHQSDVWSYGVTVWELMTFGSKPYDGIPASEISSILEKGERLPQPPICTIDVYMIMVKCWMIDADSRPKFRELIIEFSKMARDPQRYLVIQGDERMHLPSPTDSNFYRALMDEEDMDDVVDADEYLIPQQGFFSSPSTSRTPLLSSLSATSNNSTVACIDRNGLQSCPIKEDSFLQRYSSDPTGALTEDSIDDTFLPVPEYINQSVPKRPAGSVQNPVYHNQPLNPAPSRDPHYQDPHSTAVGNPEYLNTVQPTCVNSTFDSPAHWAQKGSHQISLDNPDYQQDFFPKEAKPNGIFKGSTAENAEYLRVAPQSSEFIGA
Glycogen synthase kinase-3 beta, sequence (P49841 whole entry): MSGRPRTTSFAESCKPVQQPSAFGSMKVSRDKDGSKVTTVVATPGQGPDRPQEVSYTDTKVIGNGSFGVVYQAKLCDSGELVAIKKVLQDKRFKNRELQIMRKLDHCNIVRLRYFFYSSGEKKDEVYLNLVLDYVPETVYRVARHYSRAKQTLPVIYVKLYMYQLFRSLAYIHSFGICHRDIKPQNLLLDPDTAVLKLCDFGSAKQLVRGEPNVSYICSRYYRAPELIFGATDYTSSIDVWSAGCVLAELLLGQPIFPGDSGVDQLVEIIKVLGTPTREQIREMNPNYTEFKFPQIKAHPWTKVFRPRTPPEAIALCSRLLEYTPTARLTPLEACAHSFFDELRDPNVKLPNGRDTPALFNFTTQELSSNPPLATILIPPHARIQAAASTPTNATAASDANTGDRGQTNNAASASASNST

SMILES: O=C1Nc2ccc(Cl)cc2/C1=N/Nc1nc(-c2ccc3c(c2)OCO3)nc2ccccc12
- IC50 [1]: 1000 to 2400 nM

SMILES: O=C(Cc1ccc2c(c1)CCO2)N/N=C1\CNc2cc(C(=O)NCCN3CCOCC3)cc(Br)c21
- IC50 [2]: 0.7 nM

SMILES: O=C(Cc1ccc2c(c1)CCO2)N/N=C1\CNc2cc(C(=O)NCCCCN3CCC[C@H]3CO)cc(Br)c21
- IC50 [2]: 0.5 nM

SMILES: O=C(Cc1ccc(O)c(F)c1)N/N=C1\C(=O)Nc2c(Cl)ccc(Cl)c21
- IC50 [3]: 9 nM

SMILES: CSc1ccc(CC(=O)N/N=C2\C(=O)Nc3ccccc32)cc1
- IC50 [3]: > 20000 nM

SMILES: O=C(Cc1ccc2c(c1)CCO2)N/N=C1\CNc2cc(C(=O)NCCCCN3CC[C@H](O)C3)cc(Br)c21
- IC50 [2]: 0.7 nM

SMILES: Cc1[nH]c(/C=N/N=C2\C(=O)Nc3ccc(F)cc32)c(C)c1C(=O)NCCCCCCCC(=O)NO
- inhibition (HeLa): 98%

SMILES: O=C(N/N=C1\C(=O)Nc2ccc(Br)cc21)Nc1nc2ccccc2o1
- IC50 [4]: 15900 nM
- IC50 [5]: 13700 nM
- IC50 [6]: 17900 nM

SMILES: O=C1/C(=N\NC(=S)Nc2ccccc2)c2cc([N+](=O)[O-])ccc2N1CN1CCCCC1
- GI50 [7]: < 10 nM
- GI50 [8]: 501 nM
- GI50 [9]: 661 nM

SMILES: CS(=O)(=O)c1ccc(CC(=O)N/N=C2\C(=O)Nc3ccccc32)cc1
- IC50 [3]: > 20000 nM

SMILES: O=c1[nH]cc(F)c(=O)[nH]1 [FLUOROURACIL]
- GI50 [10]: 55000 nM
- GI50 [11]: 6760 nM
- GI50 [12]: 42700 nM

SMILES: CN1CCN(CC(=O)N/N=C2\C(=O)Nc3ccc4ccccc4c32)CC1
- Activity [13]: 100%

SMILES: O=C(Cc1ccc(O)c(Cl)c1)N/N=C1\C(=O)Nc2c(Cl)ccc(Cl)c21
- IC50 [3]: 9 nM

SMILES: O=C(CSc1nc2ccccc2c(=O)n1-c1ccccc1)N/N=C1\C(=O)Nc2ccc(F)cc21
- GI50 [10]: 1660 nM
- GI50 [11]: 209 nM
- GI50 [12]: 1700 nM

SMILES: O=C(CN/N=C1\C(=O)Nc2ccccc21)Nc1nc2ccc(Cl)cc2s1
- growth inhibition (GI) [14]: 26.6%
- growth inhibition (GI) [15]: 27.5%
- growth inhibition (GI) [16]: 38.1%
- inhibition [17]: 36.6%

SMILES: Cc1cc2c(cc1Br)NC(=O)/C2=N\NC(=O)c1ccccc1O
- IC50 [18]: 15800 nM

SMILES: O=C1Nc2ccc(OC(F)(F)F)cc2/C1=N/N=C1/C(=O)N(c2ccccc2)c2ccccc21
- IC50 [19]: 7670 nM
- IC50 [20]: 4800 nM

SMILES: Cc1nc(-c2ccccc2)ccc1C(=O)N/N=C1\C(=O)Nc2ccc(Br)cc21
- IC50 [21]: 25000 nM

SMILES: COc1ccc(NC(=S)N/N=C2\C(=O)Nc3ccccc32)cc1
- IC50 [20]: 3300 nM

SMILES: Nc1c(C(=O)N/N=C2\C(=O)Nc3ccc([N+](=O)[O-])cc32)cnn1C(=O)c1ccc(-c2nc3ccccc3s2)cc1
- IC50 [22]: 10 nM

SMILES: COc1ccc(-c2nc(N/N=C3\C(=O)Nc4ccccc43)c3ccccc3n2)cc1OC
- IC50 [1]: 1000 to 2400 nM

SMILES: Cc1ccc2c(c1)/C(=N/NC(=O)N/N=C1\C(=O)Nc3ccc(C)cc31)C(=O)N2
- IC50 [23]: 16000 nM

SMILES: O=C1Nc2ccc(F)cc2/C1=N/Nc1nc(-c2ccccc2)nc2ccccc12
- IC50 [1]: 1000 to 2400 nM

SMILES: O=C1Nc2ccc(S(=O)(=O)O)cc2/C1=N/Nc1ccccc1[N+](=O)[O-]
- IC50 [24]: 4990 nM
